Measured values: publication PMC5641094, “A peptide antagonist of Prep1-p160 interaction improves ceramide-induced insulin resistance in skeletal muscle cells” (Oncotarget, 2017)
One block for each molecule: values may come before it. Ends that are not written are not given here. * marks the point of attachment. Biotin = O=C1N[C@H]2[C@H](CS[C@H]2CCCCC(=O)*)N1

Legend:
L6 cells [1] = assay: 2-DG uptake in L6 cells; format: cell-based, rat; conditions: insulin 100nM, mean of three experiments
Procedure: (§1) Figure 6 Effect of Prep1(54-72) peptide on glycogen content and 2-DG uptake L6 control and Prep1 overexpressing cells were stimulated with Insulin (100nM) and/or C2cer (10μM) and incubated with Prep1(54-72). (A) Glycogen content and (B) 2-DG uptake were measured as described in methods. Bars represent the mean ± SD of three independent experiments. Asterisks denote statistically significant differences (*p<0.05; **p<0.01; ***p<0.001).
(§2) Glycogen was isolated from L6 cells homogenized in 0.1% SDS, saturated with Na2SO4 for 30 minutes at 37°C, followed by ethanol (EtOH) precipitation. Glycogen content was determined as previously described. 2-DG uptake by the L6 cells was measured as previously reported.

[2] = test system: IR tyrosine phosphorylation; assay: IR tyrosine phosphorylation, immunoprecipitation and Western blot; format: cell-based, rat; conditions: L6 cells, insulin 100nM
Procedure: (§3) Figure 4 Prep1(54-72) peptide restores the insulin signaling inhibited by C2cer and Prep1 L6 cells were stimulated with insulin (100nM) and incubated with Prep1(54-72) in presence of C2cer at 10μM for 18h (A-B) or stable transfection of Prep1 (C-D). Protein lysates were immunoprecipitated with specific IR or IRS1 antibodies and analyzed by Western blot using antibodies for phosphotyrosines (pY) and beta-actin as loading control. Blots were detected by ECL and autoradiography. The autoradiographs are representative of three independent experiments. Asterisks denote statistically significant differences (*p<0.05; **p<0.01).
(§4) Total cell lysates were obtained and separated by SDS-PAGE. Briefly, cells were solubilized with lysis buffer containing 50mM HEPES, 150mM NaCl, 10mM EDTA, 10mM Na4P2O7, 2mM sodium orthovanadate, 50mM NaF, 1mM phenylmethylsulfonyl fluoride, 10μg/ml aprotinin, 10μg/ml leupeptin, pH 7.4, and 1% (v/v) Triton X-100. Lysates were clarified by centrifugation at 12,000g for 20 minutes at 4°C. The protein concentrations in the cell lysates were measured using a Bio-Rad DC (detergent compatible) assay. Immunoprecipitation and Western blot analysis have been performed as previously described.

[3] = test system: IRS1 tyrosine phosphorylation; assay: IRS1 tyrosine phosphorylation, immunoprecipitation and Western blot; format: cell-based, rat; conditions: L6 cells, insulin 100nM
Procedure: as §3, §4

L6 cells [4] = assay: Glycogen content in L6 cells; format: cell-based, rat; conditions: insulin 100nM, mean of three experiments
Procedure: as §1, §2

[5] = test system: Prep1 and p160 protein levels in L6 cells; assay: Western blot of Prep1 and p160 protein levels in L6 cells; format: cell-based, rat; conditions: CHX 40μg/ml, 18h
Procedure: Figure 1 Effect of ceramides dose-response and time-course on Prep1 and p160 protein levels L6 skeletal muscle cells were treated with different concentration of C2cer (10μM and 100μM for 18h) (A) and for different time (10μM for 6h and 18h) (B). Protein lysates were analyzed by Western blot using antibodies for Prep1, p160 and for the beta-actin, as a loading control. Blots were detected by ECL and autoradiography. The autoradiographs are representative of four independent experiments. Asterisks denote statistically significant differences (*p<0.05; **p<0.01).
(§5) Figure 2 Effect of ceramides on Prep1 and p160 mRNA expression and of Prep1-p160 coprecipitation L6 cells were treated with C2cer (10μM) for 18h and Prep1 (A) or p160 (B) mRNA levels were analyzed by real-time RT-PCR analysis. Data were normalized by the amount of GAPDH mRNA, used as internal control. Bars represent the mean ± SD of three independent experiments, each performed in triplicate. (C) L6 cells were treated with cycloheximide (CHX) at 40μg/mL concentration for 18h and the lysates were analyzed by Western blot with anti-p160 and beta-actin. The autoradiograph shown is representative of three different experiments and subjected to densitometric analysis. (D) Protein lysates from L6 cells treated with C2cer as indicated, were immunoprecipitated with Prep1 antibody and immunoblotted with p160 or Prep1 antibodies. The autoradiograph shown is representative of three different experiments and subjected to densitometric analysis. Asterisks denote statistically significant differences (*p<0.05; **p<0.01).
Figure 3 Design and in vitro effects of Prep1(54-72) peptide on Prep1/p160 association (A) Binding curves of Prep1(59-72) and Prep1(54-72) peptides to p160_20-160 by ELISA-like assays. Biotinylated peptides at several concentrations were added in triplicate to a 96-well plate coated with p160_20-160 (0.1μM). Experiments were performed at least twice and the average results fitted using GraphPad Prism. […] (B) Competition binding experiments. His6-tagged-p160_20-160 at 0.25μM was incubated with Prep1(59-72) and Prep1(54-72) at concentrations ranging between 0.001÷10μM and added to a 96-well plate coated with Prep1_45-155 (0.10μM). Results are the average of three independent experiments. (C) L6 cells were incubated with increasing concentrations of the fluorescein-conjugated peptide (FITC-Prep1(54-72)) and peptide uptake was detected by FACS analysis of fluorescein-labeled cells. Bars represent the mean ± SD of four independent experiments. (D) L6 muscle cells incubated with Prep1(54-72) were stimulated with C2cer (10μM) for 18h. Protein lysates were immunoprecipitated with Prep1 antibodies and analyzed by Western blot using antibodies for p160 or for Prep1. (E) An aliquot of the lysate was used to measure protein expression of Prep1 and p160 and the beta-actin used as loading control. The blots were detected by ECL and autoradiography. The autoradiograph is representative of three independent experiments. Asterisks denote statistically significant differences (*p<0.05; **p<0.01).
L6 rat skeletal muscle cells (ATCC, Manassas, VA, USA) were cultured in DMEM supplemented with 10% FBS and 1% penicillin/streptomycin solution at 37°C in a humidified 95% air and 5% CO2 atmosphere (all vol./vol.). […]
Total cell lysates were obtained and separated by SDS-PAGE. […] The protein concentrations in the cell lysates were measured using a Bio-Rad DC (detergent compatible) assay. […]

Prep1 mRNA = assay: Real-time RT-PCR of Prep1 mRNA in L6 cells; format: cell-based, rat; conditions: preliminary data
Procedure: as §5
Total cellular RNA was isolated from L6 cells by using the RNeasy kit (QIAGEN Sciences, Germany), according to manufacturer instructions. 1μg of cell RNA was reverse-transcribed using Superscript III Reverse Transcriptase (Life Technologies Carlsbad, CA, USA). PCR reactions were analyzed using IQTM SYBR Green Supermix (Bio-Rad, Hercules, CA). […]

[6] = target: T1, p160_20-160/Prep1_45-155 binding (Homo sapiens, UniProt Q9BQG0); assay: ELISA-like competition of p160_20-160/Prep1_45-155 binding; conditions: His6-p160_20-160 0.25μM pre-incubated with peptide 0.001-10μM; plate coated with Prep1_45-155 (0.10μM); anti-His HRP; average of three experiments
T1 construct: pre-incubating the His6-tagged-p160_20-160 at 0.25μM with peptides; made in house
T1 sequence (Q9BQG0 20-160): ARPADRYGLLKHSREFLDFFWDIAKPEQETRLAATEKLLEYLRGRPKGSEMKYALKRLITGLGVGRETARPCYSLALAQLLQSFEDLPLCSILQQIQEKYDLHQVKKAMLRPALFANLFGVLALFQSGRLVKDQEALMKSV
Description: To address the significance of the association between Prep1 and p160 mediated by C2cer, we generated a synthetic inhibitor of the Prep1/p160 interaction. […] The synthetic peptide covering such stretch of residues was therefore chosen to generate a potential inhibitor. […] Thus, we designed and chemically synthesized a peptide spanning residues 59-72, hereafter Prep1(59-72), which comprises the predicted α-helix and a short loop at the N-terminus (Supplementary Figure 2A, upper panel). We also designed and prepared an additional peptide with a slightly longer N-terminal end, named Prep1(54-72) (Supplementary Figure 2A, lower panel), to increase the probability of obtaining a molecule with helical features. […] In order to test the affinity of Prep1 synthetic peptides to p160 protein, ELISA-like experiments were developed where N-terminally biotinylated peptide variants were added to p160_20-160 – coated 96-well plates. As shown in Figure 3A either variants bound p160_20-160 domain in a dose-dependent and saturable manner. […]
(§6) Figure 3 Design and in vitro effects of Prep1(54-72) peptide on Prep1/p160 association (A) Binding curves of Prep1(59-72) and Prep1(54-72) peptides to p160_20-160 by ELISA-like assays. […] (C) L6 cells were incubated with increasing concentrations of the fluorescein-conjugated peptide (FITC-Prep1(54-72)) and peptide uptake was detected by FACS analysis of fluorescein-labeled cells. […] Protein lysates were immunoprecipitated with Prep1 antibodies and analyzed by Western blot using antibodies for p160 or for Prep1. […] The blots were detected by ECL and autoradiography. […]
ELISA experiments were performed using an integrated platform for High-Throughput Screening (Hamilton Robotics, Bonaduz, CH) comprising a fully equipped Starlet 8 channel liquid handler, a robotic arm, a washer and a multi-wavelength plate reader. […] In particular, several concentrations of biotinylated peptides at several concentrations were added to a plate coated with p160_20-160 (0.1μM) and binding was detected with streptavidin-HRP. […] The binding was detected by anti-His HRP-conjugated antibody. […]

p160_20-160 = target: T2, p160_20-160 (Homo sapiens, UniProt Q9BQG0); assay: ELISA-like direct binding of biotinylated Prep1 peptides to coated p160_20-160; conditions: N-terminally biotinylated peptide variants; plate coated with p160_20-160 (0.1μM); streptavidin-HRP; one-site binding fit; triplicate, performed at least twice
T2 construct: were added to a plate coated with p160_20-160 (0.1μM); His6; made in house
T2 sequence (Q9BQG0 20-160): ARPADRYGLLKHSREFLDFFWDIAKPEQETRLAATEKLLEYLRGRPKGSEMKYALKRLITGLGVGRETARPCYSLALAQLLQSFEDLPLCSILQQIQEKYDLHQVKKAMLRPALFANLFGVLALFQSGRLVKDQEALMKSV
Description: To address the significance of the association between Prep1 and p160 mediated by C2cer, we generated a synthetic inhibitor of the Prep1/p160 interaction. […] The synthetic peptide covering such stretch of residues was therefore chosen to generate a potential inhibitor. […] Thus, we designed and chemically synthesized a peptide spanning residues 59-72, hereafter Prep1(59-72), which comprises the predicted α-helix and a short loop at the N-terminus (Supplementary Figure 2A, upper panel). […]
as §6
ELISA experiments were performed using an integrated platform for High-Throughput Screening (Hamilton Robotics, Bonaduz, CH) comprising a fully equipped Starlet 8 channel liquid handler, a robotic arm, a washer and a multi-wavelength plate reader. […] The binding was detected by anti-His HRP-conjugated antibody. […]

His6-tagged p160(20-160) = target: T3, His6-tagged p160(20-160) (UniProt Q7TPV4 20-160); assay: ELISA; ELISA-like direct binding: 96-well plate coated with p160(20-160) (0.1 uM); biotinylated peptides at several concentrations added in triplicate; detection with streptavidin-HRP; one-site binding fit (GraphPad Prism); conditions: both partners purified
T3 construct: also called His6-p160(20-160); p160(20-160) domain
T3 sequence (looked up): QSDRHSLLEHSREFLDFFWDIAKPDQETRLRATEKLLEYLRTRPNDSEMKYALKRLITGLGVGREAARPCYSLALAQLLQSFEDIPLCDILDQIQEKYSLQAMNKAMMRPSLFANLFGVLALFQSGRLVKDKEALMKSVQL

Molecule: insulin: insulin used at 100nM to stimulate L6 cells
stimulation of glucose uptake (2-DG) (L6 cells [1]): 2.1 fold | stimulation of IR tyrosine phosphorylation [2]: 1.5 fold | stimulation of IRS1 tyrosine phosphorylation [3]: 1.1 fold | stimulation of glycogen synthesis (L6 cells [4]): 1.3 fold

Molecule: C[C@@H]1C[C@@H]([C@H](O)CC2CC(=O)NC(=O)C2)C(=O)[C@@H](C)C1 [cycloheximide (CHX), cycloheximide]
reduction of p160 cellular levels [5]: 50%

Molecule: Cc1ccc(NCCCc2ccccc2)c(N)c1 [JSH-23]
effect on C2cer-induced Prep1 mRNA expression (Prep1 mRNA): reverts the effect of C2cer

More lines, now with the values ahead:

IC50, inhibition of p160_20-160/Prep1_45-155 binding [6]: did not converge to a meaningful value | Kd (p160_20-160): 1250 nM
Molecule: Ac-RHPLFPLLALLFEK-NH2 [Prep1(59-72)]

Kd (His6-tagged p160(20-160)): 1250 ± 80 nM
B1: N-terminally biotinylated Prep1(59-72) peptide (peptide)
peptide: Biotin-RHPLFPLLALLFEK
notes: Prep1 (Pbx regulating protein 1), stretch of the HR1 domain, named residues 59-72; source: synthetic peptide (Fmoc solid phase, RP-HPLC purified), biotin labelled

Kd (His6-tagged p160(20-160)): 180 ± 40 nM
B2: N-terminally biotinylated Prep1(54-72) peptide (peptide)
peptide: Biotin-KQAIYRHPLFPLLALLFEK
notes: Prep1 (Pbx regulating protein 1), stretch of the HR1 domain, named residues 54-72; source: synthetic peptide (Fmoc solid phase, RP-HPLC purified), biotin labelled
